Assay [1] relates to MDA-MB-231. Kind of assay: Induction of apoptosis in human MDA-MB-231 cells assessed as necrotic cells at 5 uM measured after 24 hrs by Annexin-V/propidium iodide staining based flow cytometry (reference value: 0.22 to 0.46%). The assay is classed as functional. A general note: A flow cytometer gives signals particle by particle.
Assay [2] has as its system MDA-MB-231. Kind of assay: Induction of apoptosis in human MDA-MB-231 cells assessed as increase in cleaved caspase-9 expression at 2.5 to 10 uM measured after 24 hrs by Western blot analysis. The assay is classed as functional, cell-based. The note with it: dose 2.5-10 µM.
Assay [3] addresses Histone deacetylase 3/NCoR1 (Homo sapiens, UniProt O15379). Kind of assay: Inhibition of recombinant human GST-fused HDAC3/NCOR1 (397 to 503 residues) expressed in baculovirus infected insect cells using Ac-Leu-Gly-Lys(Ac)-AMC as substrate measured after 30 mins by fluorescence assay.
In assay [4] the test system is MDA-MB-231. Nature of the assay: Inhibition of cell migration in human MDA-MB-231 cells assessed as increase in E-cadherin expression at 2.5 to 10 uM measured after 24 hrs Western blot analysis. The assay is classed as functional, cell-based. The note with it: dose 2.5-10 µM.
Assay [5] concerns the target T1, Polyamine deacetylase HDAC10 (Homo sapiens, UniProt Q969S8).
T1 sequence (Q969S8 whole entry): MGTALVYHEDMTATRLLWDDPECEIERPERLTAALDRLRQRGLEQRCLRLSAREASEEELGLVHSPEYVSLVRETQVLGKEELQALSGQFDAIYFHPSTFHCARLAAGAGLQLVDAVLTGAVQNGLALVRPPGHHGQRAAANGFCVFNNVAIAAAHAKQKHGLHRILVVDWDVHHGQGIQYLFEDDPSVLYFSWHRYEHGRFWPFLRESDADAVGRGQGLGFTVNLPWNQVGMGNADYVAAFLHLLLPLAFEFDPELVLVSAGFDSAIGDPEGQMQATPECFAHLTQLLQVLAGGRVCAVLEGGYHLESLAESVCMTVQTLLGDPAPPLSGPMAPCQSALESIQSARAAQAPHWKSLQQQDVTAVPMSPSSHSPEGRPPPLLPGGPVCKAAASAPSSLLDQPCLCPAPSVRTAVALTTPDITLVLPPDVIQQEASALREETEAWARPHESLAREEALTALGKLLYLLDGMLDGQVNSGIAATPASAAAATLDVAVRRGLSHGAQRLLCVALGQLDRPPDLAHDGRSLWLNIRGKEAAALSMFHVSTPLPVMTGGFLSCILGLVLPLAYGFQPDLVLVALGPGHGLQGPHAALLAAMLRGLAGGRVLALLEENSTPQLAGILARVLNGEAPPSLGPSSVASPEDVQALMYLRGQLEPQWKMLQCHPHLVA
Nature of the assay: Inhibition of recombinant human C-terminal His-tagged HDAC10 expressed in baculovirus infected Sf9 insect cells using Ac-Arg-His-Lys(Ac)-Lys(Ac)-AMC as substrate measured after 30 mins by fluorescence assay.

The target in the next assay is T2, Histone deacetylase 8 (Homo sapiens, UniProt Q9BY41).
T2 sequence (Q9BY41 whole entry): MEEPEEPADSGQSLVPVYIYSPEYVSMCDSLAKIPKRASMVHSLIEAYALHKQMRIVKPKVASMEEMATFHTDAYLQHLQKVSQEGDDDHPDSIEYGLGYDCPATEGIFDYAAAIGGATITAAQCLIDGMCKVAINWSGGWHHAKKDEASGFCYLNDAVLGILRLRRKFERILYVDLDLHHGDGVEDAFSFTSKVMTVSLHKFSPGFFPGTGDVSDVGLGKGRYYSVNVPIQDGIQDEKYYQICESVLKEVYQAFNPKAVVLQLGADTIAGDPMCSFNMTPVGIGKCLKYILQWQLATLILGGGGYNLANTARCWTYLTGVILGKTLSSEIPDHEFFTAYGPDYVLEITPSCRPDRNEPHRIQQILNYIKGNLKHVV
Nature of the assay: Inhibition of recombinant human full-length C-terminal His-tagged HDAC8 expressed in baculovirus infected Sf9 insect cells using Ac-Leu-Gly-Lys(Tfa)-AMC as substrate measured after 30 mins by fluorescence assay.

Another assay has as its target Histone deacetylase 1 (Homo sapiens, UniProt Q13547). Nature of the assay: Inhibition of recombinant human His-tagged HDAC1 expressed in insect cells using Ac-Leu-Gly-Lys(Ac)-AMC as substrate measured after 30 mins by fluorescence assay.
Assay [6] deals with MDA-MB-231. Nature of the assay: Induction of autophagy in human MDA-MB-231 cells assessed as decrease in SQSTM1/p62 expression at 2.5 to 10 uM measured after 24 hrs by Western blot analysis. The assay is classed as functional, cell-based. Particulars: dose 2.5-10 µM. (In general: Immunoblotting shows a protein as a band on a membrane.)
For another assay, the target named is T3, Histone deacetylase 7 (Homo sapiens, UniProt Q8WUI4).
T3 sequence (Q8WUI4 whole entry): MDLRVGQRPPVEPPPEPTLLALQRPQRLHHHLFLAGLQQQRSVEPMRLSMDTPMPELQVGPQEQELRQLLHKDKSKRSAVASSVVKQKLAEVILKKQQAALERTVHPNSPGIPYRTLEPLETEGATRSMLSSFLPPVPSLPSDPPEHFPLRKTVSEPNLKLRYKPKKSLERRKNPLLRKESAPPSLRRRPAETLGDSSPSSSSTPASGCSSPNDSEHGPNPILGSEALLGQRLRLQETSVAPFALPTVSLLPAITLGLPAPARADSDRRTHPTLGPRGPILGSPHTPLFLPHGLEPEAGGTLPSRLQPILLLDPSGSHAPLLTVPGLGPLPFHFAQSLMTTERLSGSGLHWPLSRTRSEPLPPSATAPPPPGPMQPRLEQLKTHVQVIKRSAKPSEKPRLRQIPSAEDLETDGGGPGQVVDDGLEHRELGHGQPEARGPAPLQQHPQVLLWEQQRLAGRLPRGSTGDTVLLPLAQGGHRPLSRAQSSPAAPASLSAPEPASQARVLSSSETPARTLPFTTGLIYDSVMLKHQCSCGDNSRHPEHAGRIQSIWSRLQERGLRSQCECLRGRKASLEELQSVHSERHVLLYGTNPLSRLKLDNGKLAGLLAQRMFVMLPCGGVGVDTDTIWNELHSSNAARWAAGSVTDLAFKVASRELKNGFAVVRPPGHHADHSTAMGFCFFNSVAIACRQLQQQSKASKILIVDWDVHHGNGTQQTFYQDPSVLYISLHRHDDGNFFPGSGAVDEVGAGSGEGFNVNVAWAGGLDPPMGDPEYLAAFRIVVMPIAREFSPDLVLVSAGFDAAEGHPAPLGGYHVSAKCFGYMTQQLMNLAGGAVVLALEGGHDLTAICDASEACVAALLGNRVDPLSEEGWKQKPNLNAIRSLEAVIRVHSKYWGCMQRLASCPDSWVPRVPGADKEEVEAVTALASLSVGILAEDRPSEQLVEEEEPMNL
Kind of assay: Inhibition of HDAC7 (unknown origin) using AcLeu-Gly-Lys(Tfa)-AMC as substrate measured after 30 mins by fluorescence assay.

Assay [7] relates to MDA-MB-231. Nature of the assay: Induction of apoptosis in human MDA-MB-231 cells assessed as early apoptotic cells at 10 uM measured after 24 hrs by Annexin-V/propidium iodide staining based flow cytometry (reference value: 0.69 to 0.92%). The assay is classed as functional.
The test system of assay [8] is MDA-MB-231. Nature of the assay: Antiproliferative activity against human MDA-MB-231 cells measured after 48 hrs by MTT assay. The assay is classed as functional, cell-based. Particulars: MDA-MB-231, 48 h. A general note: Formazan colour is commonly taken as a measure of viable cells.

Active and inactive are the calls of the source. No cut-off for these calls is given here.

This note sets out measurements from ChEMBL document CHEMBL4765420, “Design, synthesis and biological evaluation of novel HDAC inhibitors with improved pharmacokinetic profile in breast cancer” (Eur J Med Chem, 2020).

Histone deacetylase 3/NCoR1, sequence (O15379 whole entry, the tested form may be a part): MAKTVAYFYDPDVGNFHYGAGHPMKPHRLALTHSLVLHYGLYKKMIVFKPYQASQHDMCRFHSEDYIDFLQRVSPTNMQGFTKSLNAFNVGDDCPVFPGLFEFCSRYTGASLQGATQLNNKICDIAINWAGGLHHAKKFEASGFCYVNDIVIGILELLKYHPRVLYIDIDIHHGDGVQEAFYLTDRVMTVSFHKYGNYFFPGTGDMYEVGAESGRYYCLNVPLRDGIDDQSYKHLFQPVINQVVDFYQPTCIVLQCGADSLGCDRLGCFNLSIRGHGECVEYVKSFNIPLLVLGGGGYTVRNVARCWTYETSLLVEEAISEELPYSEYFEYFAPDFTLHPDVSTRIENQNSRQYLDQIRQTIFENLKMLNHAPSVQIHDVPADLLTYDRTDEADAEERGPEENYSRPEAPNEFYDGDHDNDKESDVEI
Histone deacetylase 3/NCoR1, sequence (O75376 whole entry, further chain, the tested form may be a part): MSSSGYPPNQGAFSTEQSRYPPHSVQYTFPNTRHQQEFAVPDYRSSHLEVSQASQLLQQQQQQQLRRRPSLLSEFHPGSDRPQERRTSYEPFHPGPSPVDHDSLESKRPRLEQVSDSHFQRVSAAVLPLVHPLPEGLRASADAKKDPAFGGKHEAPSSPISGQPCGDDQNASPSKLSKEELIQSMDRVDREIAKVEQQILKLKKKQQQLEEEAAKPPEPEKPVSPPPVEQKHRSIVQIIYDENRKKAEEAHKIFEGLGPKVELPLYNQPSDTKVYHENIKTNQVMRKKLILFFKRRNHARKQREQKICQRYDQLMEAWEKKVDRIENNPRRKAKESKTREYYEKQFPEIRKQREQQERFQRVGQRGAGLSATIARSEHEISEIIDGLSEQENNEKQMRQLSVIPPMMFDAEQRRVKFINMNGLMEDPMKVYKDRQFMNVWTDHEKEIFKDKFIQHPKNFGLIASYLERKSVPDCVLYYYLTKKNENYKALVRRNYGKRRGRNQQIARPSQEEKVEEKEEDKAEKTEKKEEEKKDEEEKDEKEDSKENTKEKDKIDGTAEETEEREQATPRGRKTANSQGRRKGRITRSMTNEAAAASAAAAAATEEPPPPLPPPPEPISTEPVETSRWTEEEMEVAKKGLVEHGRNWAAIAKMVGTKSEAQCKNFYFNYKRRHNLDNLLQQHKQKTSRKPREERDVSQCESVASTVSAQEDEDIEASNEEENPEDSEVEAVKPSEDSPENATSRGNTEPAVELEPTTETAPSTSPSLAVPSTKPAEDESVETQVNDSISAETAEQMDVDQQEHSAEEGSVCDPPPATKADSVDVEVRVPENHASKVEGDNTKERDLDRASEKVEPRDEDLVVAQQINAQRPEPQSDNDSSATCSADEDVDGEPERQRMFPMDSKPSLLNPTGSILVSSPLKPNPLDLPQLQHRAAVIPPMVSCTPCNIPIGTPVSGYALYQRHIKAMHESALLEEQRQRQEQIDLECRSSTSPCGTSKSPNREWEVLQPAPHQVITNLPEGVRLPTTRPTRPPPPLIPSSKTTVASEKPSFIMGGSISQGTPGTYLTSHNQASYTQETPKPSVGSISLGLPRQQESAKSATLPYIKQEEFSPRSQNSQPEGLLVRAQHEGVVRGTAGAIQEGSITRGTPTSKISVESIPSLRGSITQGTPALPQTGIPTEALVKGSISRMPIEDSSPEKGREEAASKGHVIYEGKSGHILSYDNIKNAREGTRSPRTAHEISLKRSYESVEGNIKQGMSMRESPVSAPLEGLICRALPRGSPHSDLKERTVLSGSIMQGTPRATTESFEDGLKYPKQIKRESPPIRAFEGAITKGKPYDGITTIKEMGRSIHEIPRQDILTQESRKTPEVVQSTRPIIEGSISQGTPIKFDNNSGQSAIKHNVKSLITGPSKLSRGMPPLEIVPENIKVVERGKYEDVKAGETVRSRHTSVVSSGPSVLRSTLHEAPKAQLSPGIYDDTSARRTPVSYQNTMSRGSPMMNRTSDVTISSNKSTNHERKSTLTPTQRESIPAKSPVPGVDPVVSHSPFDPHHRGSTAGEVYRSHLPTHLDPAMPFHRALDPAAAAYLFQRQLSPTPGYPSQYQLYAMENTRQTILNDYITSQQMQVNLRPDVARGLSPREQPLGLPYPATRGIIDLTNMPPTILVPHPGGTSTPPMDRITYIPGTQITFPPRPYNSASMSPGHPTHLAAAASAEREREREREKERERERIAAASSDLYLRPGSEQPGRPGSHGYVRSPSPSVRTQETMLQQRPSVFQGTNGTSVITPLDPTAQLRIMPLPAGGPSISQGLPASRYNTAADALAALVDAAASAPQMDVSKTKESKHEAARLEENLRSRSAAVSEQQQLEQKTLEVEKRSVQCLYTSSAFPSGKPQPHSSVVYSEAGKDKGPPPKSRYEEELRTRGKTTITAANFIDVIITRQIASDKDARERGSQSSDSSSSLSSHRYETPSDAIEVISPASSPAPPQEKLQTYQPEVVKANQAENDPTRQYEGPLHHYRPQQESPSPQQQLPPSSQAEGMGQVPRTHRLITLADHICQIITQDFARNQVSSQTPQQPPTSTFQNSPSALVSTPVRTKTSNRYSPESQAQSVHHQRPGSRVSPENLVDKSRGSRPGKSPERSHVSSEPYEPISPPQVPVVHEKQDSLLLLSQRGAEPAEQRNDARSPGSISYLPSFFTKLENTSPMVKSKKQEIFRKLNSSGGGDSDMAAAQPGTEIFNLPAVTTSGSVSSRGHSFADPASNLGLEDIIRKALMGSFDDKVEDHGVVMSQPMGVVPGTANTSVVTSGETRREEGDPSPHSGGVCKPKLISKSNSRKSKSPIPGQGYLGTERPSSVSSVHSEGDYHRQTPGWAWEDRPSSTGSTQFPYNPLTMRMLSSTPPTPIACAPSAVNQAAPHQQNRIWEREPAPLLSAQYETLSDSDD
Histone deacetylase 1, sequence (Q13547 whole entry): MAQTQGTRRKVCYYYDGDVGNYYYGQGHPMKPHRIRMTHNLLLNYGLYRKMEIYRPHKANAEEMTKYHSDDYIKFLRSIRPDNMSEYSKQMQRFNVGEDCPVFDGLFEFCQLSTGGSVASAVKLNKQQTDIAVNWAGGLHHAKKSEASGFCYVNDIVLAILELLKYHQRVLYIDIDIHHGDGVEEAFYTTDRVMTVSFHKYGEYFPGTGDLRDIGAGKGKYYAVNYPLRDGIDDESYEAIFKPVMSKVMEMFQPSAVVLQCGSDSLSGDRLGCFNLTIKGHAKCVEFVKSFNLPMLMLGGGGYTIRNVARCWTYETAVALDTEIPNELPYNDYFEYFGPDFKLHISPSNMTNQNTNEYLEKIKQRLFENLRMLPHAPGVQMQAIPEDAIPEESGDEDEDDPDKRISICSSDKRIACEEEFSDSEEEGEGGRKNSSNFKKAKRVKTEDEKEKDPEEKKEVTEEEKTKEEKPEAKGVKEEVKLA

As for `COc1cc(OC)c2c(N3CCS(=O)(=O)CC3)nc(-c3cc(C)c(OCCCCCC(=O)NO)c(C)c3)nc2c1`, the Activity in the assay on MDA-MB-231 [1] stood at 0.41%; with MDA-MB-231 [7], 38.66%. In addition, the result in the assay with MDA-MB-231 [2], with MDA-MB-231 [4] and in the assay with MDA-MB-231 [6] was Active. The IC50 in assay [3] is 106 nM; in assay [5], 78.2 nM; at Histone deacetylase 8, 404 nM; on Histone deacetylase 1, 99.6 nM; on Histone deacetylase 7 it was > 1000 nM; in the assay on MDA-MB-231 [8] it was 1520 nM.

What is called IC50 is the concentration that inhibits the measured activity by half.
